Laboratory results taken from patent US20230263822A1, “MODULATION OF FACTOR 11 EXPRESSION” (Ionis Pharmaceuticals, Inc., priority 2008, published 2023).
Strand notation (5' to 3'): a small letter for the sugar, then the base; units joined by * are phosphorothioate-linked, units joined directly phosphodiester-linked; [ ] holds rarer units or linkages, { } end groups; capitals alone tell only the bases. e = 2'-O-(2-methoxyethyl) (MOE); [5mC] = 5-methylcytosine; d = 2'-deoxy (DNA)

Legend:
human Factor 11 mRNA = test: Dose-dependent inhibition of human Factor 11 in HepG2 cells, electroporation 123.46-10,000 nM (Example 31); assay type: cell-based; conditions: for Percent inhibition of Factor 11 mRNA at 123.47 nM / Percent inhibition of Factor 11 mRNA at 370.37 nM / IC50: electroporation; for Percent inhibition of Factor 11 mRNA at 123.47 nM / Percent inhibition of Factor 11 mRNA at 370.37 nM / Percent inhibition of Factor 11 mRNA at 1,111.11 nM / Percent inhibition of Factor 11 mRNA at 3,333.33 nM / Percent inhibition of Factor 11 mRNA at 10,000.0 nM: approx. 16 hours, relative to untreated control cells; for Percent inhibition of Factor 11 mRNA at 1,111.11 nM: electroporation, 1,111.11 nM; for Percent inhibition of Factor 11 mRNA at 3,333.33 nM: electroporation, 3,333.33 nM; for Percent inhibition of Factor 11 mRNA at 10,000.0 nM: electroporation, 10,000.0 nM; for IC50: Factor 11 mRNA expression
Procedure, shortened: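 HepG2 cells were electroporated with antisense oligonucleotide at 123.46, 370.37, 1,111.11, 3,333.33 and 10,000 nM and harvested about 16 hours later. Factor 11 mRNA was quantified by qRT-PCR and normalised to total RNA (RIBOGREEN). Inhibition is expressed relative to untreated cells.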

blood coagulation = test: PT and aPTT assay in cynomolgus monkeys (Example 45); assay type: in vivo; conditions: escalating dose regimen, platelet poor plasma
Procedure: (§1) Groups, each consisting of two male and three female monkeys, were injected subcutaneously with ISIS 416838, ISIS 416850, ISIS 416858, ISIS 416864, or ISIS 417002 in escalating doses. Antisense oligonucleotide was administered to the monkeys at 5 mg/kg three times per a week for week 1; 5 mg/kg twice per week for weeks 2 and 3; 10 mg/kg three times per week for week 4; 10 mg/kg twice per week for weeks 5 and 6; 25 mg/kg three times per week for week 7; and 25 mg/kg twice per week for weeks 8, 9, 10, 11, and 12. One control group, consisting of two male and three female monkeys, was injected subcutaneously with PBS according to the same dosing regimen. An additional experimental group, consisting of two male and three female monkeys, was injected subcutaneously with ISIS 416850 in a chronic, lower dose regimen. Antisense oligonucleotide was administered to the monkeys at 5 mg/kg three times per week for week 1; 5 mg/kg twice per week for week 2 and 3; 10 mg/kg three times per week for week 4; and 10 mg/kg twice per week for weeks 5 to 12. Body weights were measured weekly. Blood samples were collected 14 days and 5 days before the start of treatment and subsequently once per week for Factor 11 protein activity analysis in plasma, fibrinogen measurement, PT and aPTT measurements, bleeding times, and measurement of various hematologic factors. On day 85, the monkeys were euthanized by exsanguination while under deep anesthesia, and organs harvested for further analysis.
Blood samples were collected in tubes containing sodium citrate. PT and aPTT were determined in duplicate with an ACL 9000 coagulation instrument (Instrumentation Laboratory, Italy). The results were interpolated on a standard curve of serial dilutions citrated control monkey plasma tested to give a reported result in percent normal.
Prothrombin Time (PT) and Activated Partial Thromboplastin Time (aPTT) were measured using platelet poor plasma (PPP) from monkeys treated with ISIS oligonucleotides. PT and aPTT values are provided in Tables 116 and 117 and are reported as International Normalized Ratio (INR) values. INR values for PT and aPTT were determined by dividing the PT or aPTT value for each experimental group by the PT or aPTT for the PBS treated group. This ratio was then raised to the power of the International Sensitivity Index (ISI) of the tissue factor used. The ISIS oligonucleotide, ISIS 416850, given with the chronic dose regimen is distinguished from the other oligonucleotides with an asterisk (*).

[1] = Bleeding assay, Surgicutt Jr. device (Example 45); assay type: in vivo, cynomolgus monkeys; parameters: unit not given here; conditions: escalating dose regimen
Procedure: as §1
On different days during the treatment period, bleeding assay was performed using a Surgicutt Jr. device (ITC, New Jersey). Monkeys were placed in monkey chair with their arm placed in a steady support. The arm was lightly shaved and a sphygmomanometer was placed on the upper arm. The cuff of the sphygmomanometer was inflated to 40 mm Hg and this pressure was maintained throughout the procedure. The area on the upper arm to be incised was cleansed with an antiseptic swab and the Surgicutt Jr device was used to make an incision over the lateral aspect, volar surface of the forearm, parallel to and 5 cm below the antecubital crease. At the exact moment the incision was made, a stopwatch was started. Every 30 seconds, blood from the incision was blotted out using a blotting paper without directly touching the incision, so that formation of the platelet plug was not disturbed. Blood was blotted out every 30 seconds until blood no longer stained the paper. The stopwatch was then stopped and the bleeding time determined. The sphygmomanometer was removed from the animal's arm, the incision site was antiseptically swabbed and a wound closure strip applied. The ISIS oligonucleotide, ISIS 416850, given with the chronic dose regimen is distinguished from the other oligonucleotides with an asterisk (*).

## 445531 (antisense eG*eG*e[5mC]*eA*eT*dT*dG*dG*dT*dG*d[5mC]*dA*d[5mC]*eA*eG*eT*eT*eT) [compound 445531]
Human Factor 11 mRNA
  Percent inhibition of Factor 11 mRNA at 123.47 nM: 8%
  Percent inhibition of Factor 11 mRNA at 370.37 nM: 16%
  Percent inhibition of Factor 11 mRNA at 1,111.11 nM: 52%
  Percent inhibition of Factor 11 mRNA at 3,333.33 nM: 61%
  Percent inhibition of Factor 11 mRNA at 10,000.0 nM: 77%
  IC50: 1800 nM

## ISIS 417002: MOE gapmer, nucleobases 1275 to 1318 of SEQ ID NO: 1 (Table 8) (antisense GGTGCACAGTTTCTGGCAGG; MOE gapmer, wing and gap sizes not given here)
Blood coagulation; day 8
  PT ratio (INR): 1.02
  aPTT ratio (INR): 1.05
Blood coagulation; day 15
  PT ratio (INR): 1.04
  aPTT ratio (INR): 1.03
Blood coagulation; day 22
  PT ratio (INR): 1.04
  aPTT ratio (INR): 1.16
Blood coagulation; day 29
  PT ratio (INR): 1.01
  aPTT ratio (INR): 1.11
Blood coagulation; day 36
  PT ratio (INR): 1.05
  aPTT ratio (INR): 1.18
Blood coagulation; day 43
  PT ratio (INR): 1.03
  aPTT ratio (INR): 1.06
Blood coagulation; day 50
  PT ratio (INR): 0.99
  aPTT ratio (INR): 1.18
Blood coagulation; day 57
  PT ratio (INR): 1.03
  aPTT ratio (INR): 1.22
Blood coagulation; day 64
  PT ratio (INR): 1.03
  aPTT ratio (INR): 1.11
Blood coagulation; day 71
  PT ratio (INR): 0.99
  aPTT ratio (INR): 1.16
Blood coagulation; day 78
  PT ratio (INR): 1.02
  aPTT ratio (INR): 1.18
Blood coagulation; day 85
  PT ratio (INR): 1.02
  aPTT ratio (INR): 1.20
Blood coagulation; day −5
  PT ratio (INR): 1.00
  aPTT ratio (INR): 1.00
Blood coagulation; day −14
  PT ratio (INR): 1.00
  aPTT ratio (INR): 1.00
[1]; day 15
  bleeding time: 174
[1]; day 22
  bleeding time: 194
[1]; day 36
  bleeding time: 186
[1]; day 43
  bleeding time: 120
[1]; day 57
  bleeding time: 206
[1]; day 64
  bleeding time: 146
[1]; day 78
  bleeding time: 163
[1]; day 85
  bleeding time: 182
[1]; day −5
  bleeding time: 175
[1]; day −14
  bleeding time: 185

## 416856 (antisense GGCATTGGTGCACAGTTTCT; 5-10-5 gapmer, further chemistry not given here) [compound 416856]
Human Factor 11 mRNA
  Percent inhibition of Factor 11 mRNA at 123.47 nM: 12%
  Percent inhibition of Factor 11 mRNA at 370.37 nM: 23%
  Percent inhibition of Factor 11 mRNA at 1,111.11 nM: 35%
  Percent inhibition of Factor 11 mRNA at 3,333.33 nM: 59%
  Percent inhibition of Factor 11 mRNA at 10,000.0 nM: 83%
  IC50: 1600 nM
